Values quoted from earlier work as cited in publication PMC7575488, “Phase 1 dose-escalation study of a novel oral PI3K/mTOR dual inhibitor, LY3023414, in patients with cancer” (Investigational New Drugs, 2020).

Conditions: cited from earlier work; for Stomatitis, mucositis, and mouth sores: clinical studies with mTOR inhibitors

**Q.** For `CO[C@H]1C[C@@H]2CC[C@@H](C)[C@@](O)(O2)C(=O)C(=O)N2CCCC[C@H]2C(=O)O[C@H]([C@H](C)C[C@@H]2CC[C@@H](OP(C)(C)=O)[C@H](OC)C2)CC(=O)[C@H](C)/C=C(\C)[C@@H](O)[C@@H](OC)C(=O)[C@H](C)C[C@H](C)/C=C/C=C/C=C/1C` [deforolimus], which “Stomatitis, mucositis, and mouth sores” value is on record?
**A.** 78%

**Q.** What does the source list for `CO[C@H]1C[C@@H]2CC[C@@H](C)[C@@](O)(O2)C(=O)C(=O)N2CCCC[C@H]2C(=O)O[C@H]([C@H](C)C[C@@H]2CC[C@@H](OCCO)[C@H](OC)C2)CC(=O)[C@H](C)/C=C(\C)[C@@H](O)[C@@H](OC)C(=O)[C@H](C)C[C@H](C)/C=C/C=C/C=C/1C` [everolimus]?
**A.** Incidence of ILD (Japan, ref interim report on surveillance of everolimus-induced ILD in Japan): 17.4%; Stomatitis, mucositis, and mouth sores: 41%
